In brackets after ≈: the same amount, converted by molar mass.
Tests used:
[1] = test system: Staphylococcus aureus ATCC 6538 P LRP 39; assay: Bacteriostatic power in liquid medium (MIC); format: cell-based; settings: Staphylococcus aureus, ATCC6538, read-out: Minimum inhibiting concentration
Source text: (§1) the bacteriostatic power, expressed as the minimum inhibiting concentration (MIC) against both aerobic and anaerobic, Gram positive and Gram negative, bacterial stocks: the related results are reported in the tables 2 and 3.

[2] = test system: Streptococcus pyogenes ATCC 8668 LRP 34; assay: Bacteriostatic power in liquid medium (MIC); format: cell-based; settings: Streptococcus pyogenes, ATCC8668, read-out: Minimum inhibiting concentration
Source text: as §1

[3] = test system: Streptococcus pneumoniae ATCC 6303 LRP 35; assay: Bacteriostatic power in liquid medium (MIC); format: cell-based; settings: Streptococcus pneumoniae, ATCC6303, read-out: Minimum inhibiting concentration
Source text: as §1

[4] = test system: Corynebacterium diphteriae LRP 24; assay: Bacteriostatic power in liquid medium (MIC); format: cell-based; settings: Corynebacterium, LRP24, read-out: Minimum inhibiting concentration
Source text: as §1

[5] = test system: Streptococcus faecalis subs. zymogenes ATCC 12958 LRP 61; assay: Bacteriostatic power in liquid medium (MIC); format: cell-based; settings: Enterococcus faecalis, ATCC12958, read-out: Minimum inhibiting concentration
Source text: as §1

[6] = test system: Staphylococcus aureus ATCC 6538 P LRP 39; assay: Minimum bactericidal concentration (MBC); format: cell-based
Source text: (§2) the bacterial power, expressed as the minimum bactericidal power (MBC) against some Gram positive aerobic stocks (table 5).

[7] = test system: Streptococcus pyogenes ATCC 8668 LRP 34; assay: Minimum bactericidal concentration (MBC); format: cell-based
Source text: as §2

[8] = test system: Streptococcus faecalis subs. zymogenes LRP 61; assay: Minimum bactericidal concentration (MBC); format: cell-based
Source text: as §2

[9] = test system: Streptococcus pneumoniae ATCC 6303 LRP 35; assay: Minimum bactericidal concentration (MBC); format: cell-based
Source text: as §2

[10] = test system: Corynebacterium diphteriae LRP 24; assay: Minimum bactericidal concentration (MBC); format: cell-based
Source text: as §2

[11] = test system: Clostridium perfrigens ATCC 3624 LRP 206; assay: microbe, parasite or virus in culture; format: cell-based; settings: ATCC3624, solid medium, anaerobic, read-out: Minimum inhibiting concentration
Source text: as §1

Salmonella typhy LRP 8 = assay: microbe, parasite or virus in culture; format: cell-based; settings: LRP8, solid medium, read-out: Minimum inhibiting concentration
Source text: as §1

Bacillus subtilis LRP 25 = assay: Bacteriostatic power in solid medium (MIC); format: cell-based; settings: Bacillus subtilis, LRP25, read-out: Minimum inhibiting concentration
Source text: as §1

[12] = test system: Streptococcus pneumoniae ATCC 6303 LRP 52; assay: Bacteriostatic power in solid medium (MIC); format: cell-based; settings: Streptococcus pneumoniae, ATCC6303, read-out: Minimum inhibiting concentration
Source text: as §1

[13] = test system: Streptococcus pyogenes ATCC 8668 LRP 197; assay: Bacteriostatic power in solid medium (MIC); format: cell-based; settings: Streptococcus pyogenes, ATCC8668, read-out: Minimum inhibiting concentration
Source text: as §1

[14] = test system: Pseudomonas aeruginosa LRP 9; assay: Bacteriostatic power in solid medium (MIC); format: cell-based; settings: Pseudomonas aeruginosa, LRP9, read-out: Minimum inhibiting concentration
Source text: as §1

[15] = test system: Staphylococcus aureus ATCC 14154 LRP 78; assay: Bacteriostatic power in solid medium (MIC); format: cell-based; settings: Staphylococcus aureus, ATCC14154, read-out: Minimum inhibiting concentration
Source text: as §1

[16] = test system: Fusobacteriumnecrophroum ATCC 27852 LRP 210; assay: Bacteriostatic power in solid medium (MIC); format: cell-based; settings: read-out: Minimum inhibiting concentration
Source text: as §1

[17] = test system: Klelsiella pneumoniae LRP 54; assay: Bacteriostatic power in solid medium (MIC); format: cell-based; settings: read-out: Minimum inhibiting concentration
Source text: as §1

[18] = test system: Micrococcus luteus ATCC 15957 LRP 193; assay: Bacteriostatic power in solid medium (MIC); format: cell-based; settings: Micrococcus luteus, ATCC15957, read-out: Minimum inhibiting concentration
Source text: as §1

[19] = test system: Streptococcus pyogenes ATCC 8668 LRP 34; assay: Bacteriostatic power in solid medium (MIC); format: cell-based; settings: Streptococcus pyogenes, ATCC8668, read-out: Minimum inhibiting concentration
Source text: as §1

[20] = test system: Staphylococcus aureus ATCC 6538P LRP 14; assay: Bacteriostatic power in solid medium (MIC); format: cell-based; settings: Staphylococcus aureus, ATCC6538P, read-out: Minimum inhibiting concentration
Source text: as §1

[21] = test system: Streptococcus faecalis subsp. zymogenes ATCC 12958 LRP 61; assay: Bacteriostatic power in solid medium (MIC); format: cell-based; settings: Enterococcus faecalis, ATCC12958, read-out: Minimum inhibiting concentration
Source text: as §1

[22] = test system: Streptococcus pneumoniae ATCC 6303 LRP 35; assay: Bacteriostatic power in solid medium (MIC); format: cell-based; settings: Streptococcus pneumoniae, ATCC6303, read-out: Minimum inhibiting concentration
Source text: as §1

[23] = test system: Streptococcus pneumoniae ATCC 6303 LRP 53; assay: Bacteriostatic power in solid medium (MIC); format: cell-based; settings: Streptococcus pneumoniae, ATCC6303, read-out: Minimum inhibiting concentration
Source text: as §1

[24] = test system: Neisseria gonorrhoeae ATCC 19424 LRP 214; assay: Bacteriostatic power in solid medium (MIC); format: cell-based; settings: Neisseria gonorrhoeae, ATCC19424, read-out: Minimum inhibiting concentration
Source text: as §1

[25] = test system: Haemophilus influenzae ATCC 19418 LRP 213; assay: Bacteriostatic power in solid medium (MIC); format: cell-based; settings: Haemophilus influenzae, ATCC19418, read-out: Minimum inhibiting concentration
Source text: as §1

[26] = test system: Micrococcus luteus ATCC 9341 LRP 6; assay: Bacteriostatic power in solid medium (MIC); format: cell-based; settings: Micrococcus luteus, ATCC9341, read-out: Minimum inhibiting concentration
Source text: as §1

[27] = test system: Corynebacterium diphteriae LRP 24; assay: Bacteriostatic power in solid medium (MIC); format: cell-based; settings: Corynebacterium, LRP24, read-out: Minimum inhibiting concentration
Source text: as §1

[28] = test system: Acholeplasma laidlawii ATCC 23206 LRP 204; assay: Bacteriostatic power in solid medium (MIC); format: cell-based; settings: Acholeplasma laidlawii, ATCC23206, read-out: Minimum inhibiting concentration
Source text: as §1

Shigella sonnei LRP 5 = assay: Bacteriostatic power in solid medium (MIC); format: cell-based; settings: LRP5, read-out: Minimum inhibiting concentration
Source text: as §1

Escherichia coli LRP 50 = assay: Bacteriostatic power in solid medium (MIC); format: cell-based; settings: Escherichia coli, LRP50, read-out: Minimum inhibiting concentration
Source text: as §1

[29] = test system: Mycoplasma hominis I ATCC 14027 LRP 211; assay: Bacteriostatic power in solid medium (MIC); format: cell-based; settings: Metamycoplasma hominis, ATCC14027, read-out: Minimum inhibiting concentration
Source text: as §1

[30] = test system: Bacteroides fragilis ATCC 23745 LRP 205; assay: Bacteriostatic power in solid medium (MIC); format: cell-based; settings: Bacteroides fragilis, ATCC23745, read-out: Minimum inhibiting concentration
Source text: as §1

[31] = test system: Proteus vulgaris ATCC 6380 LRP 13; assay: Bacteriostatic power in solid medium (MIC); format: cell-based; settings: Proteus vulgaris, ATCC6380, read-out: Minimum inhibiting concentration
Source text: as §1

[32] = test system: Staphylococcus aureus ATCC 6538P LRP 39; assay: Bacteriostatic power in solid medium (MIC); format: cell-based; settings: Staphylococcus aureus, ATCC6538P, read-out: Minimum inhibiting concentration
Source text: as §1

[33] = test system: Streptococcus faecalis LRP 7; assay: Bacteriostatic power in solid medium (MIC); format: cell-based; settings: Enterococcus faecalis, LRP7, read-out: Minimum inhibiting concentration
Source text: as §1

[34] = Stability in acidic environment at 25° C. (half-life of initial microbiological activity); format: physicochemical; settings: aqueous solution
Procedure: Stability in acidic environnment at 25° C. of the novel
Note: t 1/2 represents the time for reducing to one half the initial powe
of the antibiotic determined by microbiological method through diffusion
on a plate using the test stock Microccocus luteus (Sarcina lutea) ATCC

SMILES: CC[C@H]1OC(=O)[C@H](C)[C@@H](O[C@H]2C[C@H](OC)[C@@H](O)[C@H](C)O2)[C@H](C)[C@@H](O[C@@H]2O[C@H](C)C[C@H](N(C)C)[C@H]2O)[C@](C)(O)C[C@](C)(F)C(=O)[C@H](C)[C@@H](O)[C@H]1C [P-80204, 3-O-oleandrosyl-5-O-desosaminyl-(8S)-8-fluoroerythronolide B]
- MIC [1]: 0.195 µg/mL (≈ 0.27 µM)
- MIC [2]: 0.049 µg/mL (≈ 0.0679 µM)
- MIC [3]: 0.024 µg/mL (≈ 0.0332 µM)
- MIC [4]: 0.024 µg/mL (≈ 0.0332 µM)
- MIC [5]: 0.39 µg/mL (≈ 0.54 µM)
- MBC/MIC [6]: 16
- MBC ([6]; Staphylococcus aureus, ATCC6538, read-out: Minimum bactericidal concentration (MBC)): 3.12 µg/mL (≈ 4.32 µM)
- MBC/MIC [7]: 8
- MBC ([7]; Streptococcus pyogenes, ATCC8668, read-out: Minimum bactericidal concentration (MBC)): 0.39 µg/mL (≈ 0.54 µM)
- MBC/MIC [8]: 16
- MBC ([8]; Enterococcus faecalis, read-out: Minimum bactericidal concentration (MBC)): 6.25 µg/mL (≈ 8.66 µM)
- MBC/MIC [9]: 2
- MBC ([9]; Streptococcus pneumoniae, ATCC6303, read-out: Minimum bactericidal concentration (MBC)): 0.049 µg/mL (≈ 0.0679 µM)
- MBC/MIC [10]: 16
- MBC ([10]; Corynebacterium, LRP24, read-out: Minimum bactericidal concentration (MBC)): 0.39 µg/mL (≈ 0.54 µM)
- MIC [11]: 1.56 µg/mL (≈ 2.16 µM)
- MIC (Salmonella typhy LRP 8): 25 µg/mL (≈ 34.6 µM)
- MIC (Bacillus subtilis LRP 25): 0.195 µg/mL (≈ 0.27 µM)
- MIC [12]: 0.049 µg/mL (≈ 0.0679 µM)
- MIC [13]: 0.049 µg/mL (≈ 0.0679 µM)
- MIC [14]: 25 µg/mL (≈ 34.6 µM)
- MIC [15]: 25 µg/mL (≈ 34.6 µM)
- MIC [16]: 12.5 µg/mL (≈ 17.3 µM)
- MIC [17]: 25 µg/mL (≈ 34.6 µM)
- MIC [18]: 25 µg/mL (≈ 34.6 µM)
- MIC [19]: 0.049 µg/mL (≈ 0.0679 µM)
- MIC [20]: 0.39 µg/mL (≈ 0.54 µM)
- MIC [21]: 0.39 µg/mL (≈ 0.54 µM)
- MIC [22]: 0.049 µg/mL (≈ 0.0679 µM)
- MIC [23]: 0.049 µg/mL (≈ 0.0679 µM)
- MIC [24]: 0.39 µg/mL (≈ 0.54 µM)
- MIC [25]: 6.25 µg/mL (≈ 8.66 µM)
- MIC [26]: 0.049 µg/mL (≈ 0.0679 µM)
- MIC [27]: 0.049 µg/mL (≈ 0.0679 µM)
- MIC [28]: 3.12 µg/mL (≈ 4.32 µM)
- MIC (Shigella sonnei LRP 5): 25 µg/mL (≈ 34.6 µM)
- MIC (Escherichia coli LRP 50): 25 µg/mL (≈ 34.6 µM)
- MIC [29]: 25 µg/mL (≈ 34.6 µM)
- MIC [30]: 3.12 µg/mL (≈ 4.32 µM)
- MIC [31]: 25 µg/mL (≈ 34.6 µM)
- MIC [32]: 0.39 µg/mL (≈ 0.54 µM)
- MIC [33]: 0.39 µg/mL (≈ 0.54 µM)
- half-life ([34]; pH 2): 25 h
- half-life ([34]; pH 3): 100 h
